According to article PMC11062922 (Nature Chemical Biology, 2023):
Where two headings read alike, the source gives them in different places.

How the values were obtained:
[1] = target: T1, MAP3K1 (Homo sapiens, UniProt Q13233); assay: Kinobeads two-dose competition binding: MAP3K1; conditions: for CATDS: target MAP3K1
T1 construct: endogenous in cells
Source text: (§1) Briefly, Kinobeads comprise seven broad-spectrum small molecule kinase inhibitors immobilized on Sepharose beads. […]. Compounds of interest are set to compete for target protein binding with Kinobeads in the lysate and the amount of a given protein bound to Kinobeads in the presence of a compound can be quantified relative to a dimethylsulfoxide (DMSO) vehicle control by label-free mass spectrometry. This assay measures the physical interaction of a compound with thousands of endogenous proteins in parallel and, when systematically increasing the concentration of competitor, enables the calculation of an apparent interaction constant ( Kdapp ) for each compound and protein.
(§2) Kinobeads pulldown experiments were performed as described previously[13],[14],[17] with minor modification. […] The protein concentration was adjusted to 5 mg ml^−1. Kinase inhibitors were spiked into 0.5 ml of cell lysate at final concentrations of 100 and 1,000 nM (or DMSO, 0.3, 1, 3, 10, 30, 100, 300 and 1,000 nM for full dose experiments). […] Lysates were incubated for 45 min at 4 °C. Subsequently, lysates were incubated with Kinobeads ε (17.5 µl of settled beads) for 30 min at 4 °C. To assess the degree of protein depletion from the lysates by Kinobeads, the flow through of the DMSO control was recovered for a pulldown of pulldown experiment where the lysate was incubated a second time with fresh Kinobeads. Beads were washed in three steps with buffer containing 0.4%, 0.2% and no IGEPAL. Bound proteins were reduced with 50 mM DTT in 8 M Urea, 40 mM Tris-HCl pH 7.4 for 30 min at room temperature. After alkylation with 55 mM chloroacetamide, the urea concentration was reduced to 1–2 M and proteins were digested with trypsin. Acidified peptides were desalted and concentrated using SepPak tC18 µEluation plates (Waters). Samples were frozen, dried by vacuum centrifugation and stored at −20 °C.
(§3) Each kinase inhibitor was processed together with all DMSO controls of the same plate. Additionally, each search was supplemented with five high quality DMSO controls for consistent peptide identification and protein grouping. The resultant file (proteinGroups.txt) was used for subsequent filtering, normalization, data visualization and target annotation that was automatically performed by a data processing pipeline built in house that used R (including the ‘drc’ and ‘heatmap’ packages). First, reverse hits, potential contaminants and not quantified proteins in the DMSO control samples were discarded. Protein raw and label-free quantification intensities were normalized to the median DMSO control intensity to obtain relative residual binding intensities for each protein group at every inhibitor concentration and standard deviations of the DMSO control intensity were calculated. IC50 values were estimated based on the following equation IC50=I×100−inhibition/inhibition where [I] is the inhibitor concentration that was used for IC50 calculation and ‘inhibition’ the relative residual binding intensity. […]. Estimated Kdapp values were then calculated by multiplying the estimated IC50 values with a protein-dependent correction factor that was limited to a maximum value of one. The correction factor accounts for the depletion of a target protein from the lysate by Kinobeads. The depletion can be measured by the ratio of the amount of protein captured in two consecutive pulldowns of the same DMSO control lysate. In this study, correction factors were determined in separate experiments using the same lysate mixture and the same bead batch. Correction factors were set to the median of all correction factors. Targets of kinase inhibitors were annotated using the previously published random forest classifier. A training data set was annotated manually. […]

[2] = target: T2, BMP2K (Homo sapiens, UniProt Q9NSY1); assay: Kinobeads two-dose competition binding: BMP2K; conditions: for CATDS: target BMP2K
T2 construct: endogenous in cells
Source text: as §1, §2, §3

[3] = target: T3, ACOX1 (Homo sapiens, UniProt Q15067); assay: Kinobeads two-dose competition binding: ACOX1;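 note: competition of compounds with immobilized broad-spectrum kinase inhibitor beads in cell lysate at 100 and 1,000 nM, 45 min at 4 °C, bead-bound protein quantified by label-free MS versus DMSO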
T3 construct: endogenous in cells
T3 sequence (Q15067 1-660): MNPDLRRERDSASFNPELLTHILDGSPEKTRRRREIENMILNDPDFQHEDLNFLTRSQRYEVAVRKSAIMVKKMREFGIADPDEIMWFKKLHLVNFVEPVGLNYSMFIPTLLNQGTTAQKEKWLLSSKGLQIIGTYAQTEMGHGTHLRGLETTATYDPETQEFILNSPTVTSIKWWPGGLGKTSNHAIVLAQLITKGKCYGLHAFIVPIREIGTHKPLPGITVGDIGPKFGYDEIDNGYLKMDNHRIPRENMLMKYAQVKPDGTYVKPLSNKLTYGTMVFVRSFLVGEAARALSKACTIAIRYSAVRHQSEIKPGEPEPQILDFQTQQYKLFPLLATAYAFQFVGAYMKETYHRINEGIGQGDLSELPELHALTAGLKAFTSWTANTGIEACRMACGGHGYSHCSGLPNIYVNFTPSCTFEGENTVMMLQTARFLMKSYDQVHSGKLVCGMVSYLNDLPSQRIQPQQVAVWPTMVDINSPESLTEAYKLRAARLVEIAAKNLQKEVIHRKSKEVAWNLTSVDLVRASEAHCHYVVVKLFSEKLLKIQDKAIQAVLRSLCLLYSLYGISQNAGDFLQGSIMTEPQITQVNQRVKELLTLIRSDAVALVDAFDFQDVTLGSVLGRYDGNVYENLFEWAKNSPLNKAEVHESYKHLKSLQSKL

[4] = target: T4, NUAK1 (Homo sapiens, UniProt O60285); assay: Kinobeads two-dose competition binding: NUAK1; conditions: for CATDS: target NUAK1
T4 construct: to maximize the representation of endogenous proteins; endogenous in cells
T4 sequence (O60285 1-661): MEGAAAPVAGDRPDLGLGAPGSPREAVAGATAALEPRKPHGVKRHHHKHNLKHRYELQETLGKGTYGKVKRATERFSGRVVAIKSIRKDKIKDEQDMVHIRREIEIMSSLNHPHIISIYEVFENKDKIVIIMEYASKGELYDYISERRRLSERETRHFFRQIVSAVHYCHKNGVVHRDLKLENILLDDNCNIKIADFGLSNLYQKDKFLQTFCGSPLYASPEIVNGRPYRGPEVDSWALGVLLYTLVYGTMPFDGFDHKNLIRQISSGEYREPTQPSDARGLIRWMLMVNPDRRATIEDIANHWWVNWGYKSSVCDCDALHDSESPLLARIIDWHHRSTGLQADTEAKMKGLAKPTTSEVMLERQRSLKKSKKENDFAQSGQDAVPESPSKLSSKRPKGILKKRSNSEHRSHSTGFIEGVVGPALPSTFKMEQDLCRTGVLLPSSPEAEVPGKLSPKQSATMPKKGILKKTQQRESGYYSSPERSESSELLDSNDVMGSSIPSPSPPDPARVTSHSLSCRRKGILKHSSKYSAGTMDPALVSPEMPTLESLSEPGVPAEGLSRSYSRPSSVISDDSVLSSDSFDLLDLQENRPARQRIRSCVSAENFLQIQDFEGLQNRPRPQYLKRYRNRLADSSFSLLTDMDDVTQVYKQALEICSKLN
Source text: as §1, §2, §3

[5] = target: T5, GSK3B (Homo sapiens, UniProt P49841); assay: Kinobeads two-dose competition binding: GSK3B; conditions: for CATDS: target GSK3B
T5 construct: endogenous in cells
T5 sequence (P49841 whole entry): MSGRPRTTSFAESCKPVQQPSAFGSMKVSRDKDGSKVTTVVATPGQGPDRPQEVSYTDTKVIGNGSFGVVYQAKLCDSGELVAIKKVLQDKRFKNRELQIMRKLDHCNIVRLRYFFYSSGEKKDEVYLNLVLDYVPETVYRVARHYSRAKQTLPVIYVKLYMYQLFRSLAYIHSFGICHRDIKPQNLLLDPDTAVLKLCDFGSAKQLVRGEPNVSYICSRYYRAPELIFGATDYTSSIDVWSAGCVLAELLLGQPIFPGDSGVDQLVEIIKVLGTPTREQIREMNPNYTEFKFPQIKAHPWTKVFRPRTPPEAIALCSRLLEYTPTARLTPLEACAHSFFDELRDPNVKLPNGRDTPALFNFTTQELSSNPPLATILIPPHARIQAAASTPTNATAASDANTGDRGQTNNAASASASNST

[6] = target: T6, ATM (Homo sapiens, UniProt Q13315); assay: Kinobeads two-dose competition binding: ATM; conditions: for CATDS: target ATM
T6 construct: endogenous in cells
T6 sequence (Q13315 whole entry): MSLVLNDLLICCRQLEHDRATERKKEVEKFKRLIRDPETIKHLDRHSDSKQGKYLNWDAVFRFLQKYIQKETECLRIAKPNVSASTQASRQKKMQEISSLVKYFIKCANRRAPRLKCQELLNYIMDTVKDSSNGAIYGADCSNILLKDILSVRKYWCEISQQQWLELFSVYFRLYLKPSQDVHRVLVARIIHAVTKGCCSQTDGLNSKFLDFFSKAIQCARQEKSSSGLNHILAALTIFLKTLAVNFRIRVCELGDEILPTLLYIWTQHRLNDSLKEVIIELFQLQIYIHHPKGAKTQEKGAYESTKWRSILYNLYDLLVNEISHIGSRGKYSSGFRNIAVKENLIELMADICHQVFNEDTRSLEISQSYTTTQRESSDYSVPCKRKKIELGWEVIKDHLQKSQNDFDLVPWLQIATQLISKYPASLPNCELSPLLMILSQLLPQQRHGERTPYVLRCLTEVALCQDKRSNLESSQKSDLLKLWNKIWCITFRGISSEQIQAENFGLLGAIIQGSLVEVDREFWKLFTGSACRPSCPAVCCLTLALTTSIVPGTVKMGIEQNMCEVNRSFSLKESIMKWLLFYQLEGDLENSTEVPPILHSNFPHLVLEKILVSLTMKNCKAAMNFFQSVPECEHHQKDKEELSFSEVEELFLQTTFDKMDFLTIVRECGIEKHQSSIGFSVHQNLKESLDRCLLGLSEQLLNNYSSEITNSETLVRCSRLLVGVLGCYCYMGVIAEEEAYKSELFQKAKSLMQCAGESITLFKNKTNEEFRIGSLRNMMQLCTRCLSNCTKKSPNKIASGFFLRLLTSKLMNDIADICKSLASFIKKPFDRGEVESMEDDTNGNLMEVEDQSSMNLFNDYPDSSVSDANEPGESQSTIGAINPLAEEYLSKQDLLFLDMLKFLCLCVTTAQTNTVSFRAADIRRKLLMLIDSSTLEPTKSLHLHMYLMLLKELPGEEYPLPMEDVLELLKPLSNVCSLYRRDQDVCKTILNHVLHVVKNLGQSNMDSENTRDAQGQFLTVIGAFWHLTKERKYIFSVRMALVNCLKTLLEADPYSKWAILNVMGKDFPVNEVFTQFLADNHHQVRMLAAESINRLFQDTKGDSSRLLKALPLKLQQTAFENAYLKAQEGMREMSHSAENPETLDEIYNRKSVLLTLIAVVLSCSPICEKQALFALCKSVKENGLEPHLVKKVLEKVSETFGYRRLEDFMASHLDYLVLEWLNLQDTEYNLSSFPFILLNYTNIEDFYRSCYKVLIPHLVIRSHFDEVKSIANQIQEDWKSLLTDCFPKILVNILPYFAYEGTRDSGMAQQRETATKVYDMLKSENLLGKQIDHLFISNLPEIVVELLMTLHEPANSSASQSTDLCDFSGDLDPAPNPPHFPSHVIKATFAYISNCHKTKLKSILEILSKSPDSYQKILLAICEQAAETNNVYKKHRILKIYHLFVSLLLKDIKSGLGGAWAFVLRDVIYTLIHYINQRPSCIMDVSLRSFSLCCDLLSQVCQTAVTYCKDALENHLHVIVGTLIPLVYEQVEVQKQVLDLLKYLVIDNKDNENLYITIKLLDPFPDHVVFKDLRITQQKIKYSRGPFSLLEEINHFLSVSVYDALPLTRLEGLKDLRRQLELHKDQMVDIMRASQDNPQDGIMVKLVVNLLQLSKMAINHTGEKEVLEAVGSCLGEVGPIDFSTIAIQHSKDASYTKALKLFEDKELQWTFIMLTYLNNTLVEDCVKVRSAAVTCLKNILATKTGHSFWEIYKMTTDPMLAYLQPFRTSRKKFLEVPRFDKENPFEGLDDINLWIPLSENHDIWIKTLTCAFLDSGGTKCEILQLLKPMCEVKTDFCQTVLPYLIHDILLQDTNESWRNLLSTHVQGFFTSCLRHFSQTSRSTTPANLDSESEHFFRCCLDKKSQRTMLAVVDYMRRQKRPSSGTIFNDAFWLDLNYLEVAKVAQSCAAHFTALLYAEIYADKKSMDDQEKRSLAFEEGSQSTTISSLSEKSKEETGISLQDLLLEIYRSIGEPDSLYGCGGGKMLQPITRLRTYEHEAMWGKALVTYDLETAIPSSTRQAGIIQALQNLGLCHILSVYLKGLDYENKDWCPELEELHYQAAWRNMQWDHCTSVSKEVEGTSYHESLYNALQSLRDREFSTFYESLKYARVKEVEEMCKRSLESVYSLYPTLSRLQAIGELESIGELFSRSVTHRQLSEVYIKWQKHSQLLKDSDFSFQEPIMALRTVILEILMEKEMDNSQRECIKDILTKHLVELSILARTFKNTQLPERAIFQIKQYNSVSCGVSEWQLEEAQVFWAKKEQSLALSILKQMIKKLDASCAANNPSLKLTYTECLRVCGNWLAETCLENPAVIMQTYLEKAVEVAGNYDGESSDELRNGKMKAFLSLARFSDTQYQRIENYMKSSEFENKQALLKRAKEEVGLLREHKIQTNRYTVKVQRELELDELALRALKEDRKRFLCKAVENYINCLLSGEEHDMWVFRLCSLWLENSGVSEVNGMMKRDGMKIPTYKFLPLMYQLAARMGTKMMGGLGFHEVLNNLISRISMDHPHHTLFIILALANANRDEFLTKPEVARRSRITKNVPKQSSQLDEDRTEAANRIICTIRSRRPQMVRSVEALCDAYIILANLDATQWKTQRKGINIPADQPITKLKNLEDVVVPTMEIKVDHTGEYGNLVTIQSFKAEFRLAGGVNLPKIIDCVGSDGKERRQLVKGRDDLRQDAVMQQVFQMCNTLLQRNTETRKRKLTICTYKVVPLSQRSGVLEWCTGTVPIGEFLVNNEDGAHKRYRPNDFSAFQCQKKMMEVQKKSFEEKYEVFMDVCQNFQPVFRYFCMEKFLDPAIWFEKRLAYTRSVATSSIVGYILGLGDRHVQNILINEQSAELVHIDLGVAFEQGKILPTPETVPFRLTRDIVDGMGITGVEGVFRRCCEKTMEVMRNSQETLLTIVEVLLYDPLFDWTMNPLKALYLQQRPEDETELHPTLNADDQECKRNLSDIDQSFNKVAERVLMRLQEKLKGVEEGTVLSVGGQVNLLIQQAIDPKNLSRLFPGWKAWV
Source text: as §1, §2, §3

[7] = sheet CATDS matrix 2, Gene Name ACOX1

T1 sequence (Q13233 whole entry): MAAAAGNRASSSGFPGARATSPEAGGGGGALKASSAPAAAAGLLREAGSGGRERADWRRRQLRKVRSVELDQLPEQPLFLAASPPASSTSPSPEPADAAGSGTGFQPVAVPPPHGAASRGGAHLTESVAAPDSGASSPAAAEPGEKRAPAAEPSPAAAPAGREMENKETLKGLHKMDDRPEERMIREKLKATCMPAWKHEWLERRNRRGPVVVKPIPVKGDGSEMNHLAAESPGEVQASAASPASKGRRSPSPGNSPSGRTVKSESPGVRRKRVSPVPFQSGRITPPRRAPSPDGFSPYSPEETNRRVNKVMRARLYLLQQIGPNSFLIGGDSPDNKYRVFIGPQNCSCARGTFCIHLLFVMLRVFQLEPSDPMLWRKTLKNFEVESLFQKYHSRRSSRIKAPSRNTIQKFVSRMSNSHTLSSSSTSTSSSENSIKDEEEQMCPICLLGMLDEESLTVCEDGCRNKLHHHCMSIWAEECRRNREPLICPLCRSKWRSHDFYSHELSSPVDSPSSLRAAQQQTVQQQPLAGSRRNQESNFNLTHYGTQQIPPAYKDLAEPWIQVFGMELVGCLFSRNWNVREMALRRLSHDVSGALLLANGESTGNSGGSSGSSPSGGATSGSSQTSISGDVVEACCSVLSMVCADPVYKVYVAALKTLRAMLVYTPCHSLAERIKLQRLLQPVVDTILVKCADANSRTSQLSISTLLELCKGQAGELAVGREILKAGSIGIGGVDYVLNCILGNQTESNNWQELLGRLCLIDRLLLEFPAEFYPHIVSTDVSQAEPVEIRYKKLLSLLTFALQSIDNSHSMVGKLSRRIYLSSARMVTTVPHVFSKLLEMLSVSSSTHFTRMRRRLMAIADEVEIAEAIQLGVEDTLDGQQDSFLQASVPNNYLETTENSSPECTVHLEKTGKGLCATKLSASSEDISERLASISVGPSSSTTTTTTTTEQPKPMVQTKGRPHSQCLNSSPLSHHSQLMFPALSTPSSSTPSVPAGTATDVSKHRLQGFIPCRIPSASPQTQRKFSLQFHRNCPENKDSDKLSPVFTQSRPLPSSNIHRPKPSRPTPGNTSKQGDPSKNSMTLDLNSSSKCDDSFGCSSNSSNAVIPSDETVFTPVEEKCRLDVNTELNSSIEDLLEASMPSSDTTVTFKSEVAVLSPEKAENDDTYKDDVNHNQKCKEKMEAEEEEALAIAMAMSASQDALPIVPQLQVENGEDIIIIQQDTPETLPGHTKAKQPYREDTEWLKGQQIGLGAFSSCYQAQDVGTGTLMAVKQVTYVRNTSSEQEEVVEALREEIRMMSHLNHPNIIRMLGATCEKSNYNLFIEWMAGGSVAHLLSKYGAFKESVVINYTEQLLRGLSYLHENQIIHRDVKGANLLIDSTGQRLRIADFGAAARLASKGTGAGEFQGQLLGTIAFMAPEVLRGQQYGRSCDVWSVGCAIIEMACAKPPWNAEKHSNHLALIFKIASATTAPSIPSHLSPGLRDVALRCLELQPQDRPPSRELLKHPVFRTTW

Row | SMILES | potency estimated from few doses ([1]; Kinobeads two-dose, Drugmatrix - all 2, read-out: apparent Kd MAP3K1) [µM] | potency estimated from few doses ([2]; Kinobeads two-dose, Drugmatrix - all 2, read-out: apparent Kd BMP2K) [µM] | CATDS [3, 7] | potency estimated from few doses ([4]; Kinobeads two-dose, Drugmatrix - all 2, read-out: apparent Kd NUAK1) [µM] | potency estimated from few doses ([5]; Kinobeads two-dose, Drugmatrix - all 2, read-out: apparent Kd GSK3B) [µM] | potency estimated from few doses ([6]; Kinobeads two-dose, Drugmatrix - all 2, read-out: apparent Kd ATM) [µM] | potency estimated from few doses ([5]; read-out: Lestaurtinib Drugmatrix value, Gene Name GSK3B) [µM] | CATDS [1] | CATDS [2] | CATDS ([3]; target ACOX1) | CATDS [4] | CATDS [5] | CATDS [6]
1 | CC(C)N1CC(=O)N(C)c2cnc(Nc3cccc(S(=O)(=O)CCN4CCOCC4)c3)nc21 [BI00009348] | > 1 | 0.736 | 0 | > 1 | 0.783 | 0.112 | – | – | – | – | – | – | –
2 | C[C@]12O[C@H](C[C@]1(O)CO)n1c3ccccc3c3c4c(c5c6ccccc6n2c5c31)CNC4=O [Lestaurtinib] | – | – | – | – | – | – | 0.295 | – | – | – | – | – | –
3 | Nc1ncnc2[nH]c(-c3ccccc3)nc12 [AH5015_KCGS] | – | – | 0 | – | – | – | – | 0 | 0 | 0 | 0 | 0.07826 | 0
4 | CCc1cc2c(cc1N1CCC(N3CCOCC3)CC1)C(C)(C)c1[nH]c3cc(C#N)ccc3c1C2=O [Alectinib] | – | – | 0 | – | – | – | – | 0 | 0 | 0 | 0 | 0 | 0
5 | CCN1CCN(Cc2ccc(Nc3ncc(F)c(-c4cc(F)c5nc(C)n(C(C)C)c5c4)n3)nc2)CC1 [Abemaciclib] | – | – | 0 | – | – | – | – | 0 | 0 | 0 | 0 | – | 0
6 | CN(C)C/C=C/C(=O)Nc1cc2c(Nc3ccc(F)c(Cl)c3)ncnc2cc1O[C@H]1CCOC1 [Afatinib] | – | – | – | – | – | – | – | 0 | 0 | – | 0 | 0 | 0
7 | N#CC1(c2ccc(NC(=O)c3cccnc3NCc3ccncc3)cc2)CCCC1 [Apatinib] | – | – | 0 | – | – | – | – | 0 | 0 | 0 | 0 | 0 | 0
8 | C#Cc1cccc(Nc2ncnc3cc(OC)c(OC4CCN(C)CC4)cc23)c1 [BI00007366] | – | – | 0 | – | – | – | – | – | – | – | – | – | –
